In paper PMC12503906, “Novel Pyrazolo [1,5‐a]−1,3,5‐Triazine Derivatives as CDK7 Inhibitors: Synthesis and Biological Insights in Pancreatic Ductal Adenocarcinoma Models” (Chemmedchem, 2025):
Like-named read-outs stand apart in the source and are kept apart here.

Legend:
Type in all cases: cell-based
PDAC3 [1] = experiment: SRB chemosensitivity assay, primary PDAC3 cells
Description: Three lines of immortalized PDAC cells were selected as representative phenotypes: mesenchymal (PATU‐T), quasimesenchymal (PANC‐1), and an epithelial clone of SUIT 2 cells (SUIT 2.28). Cells were cultured in noncoated T‐75 and T‐25 flasks under adherent conditions, using 1× DMEM (Gibco, 41,966,029) for PATU‐T and RPMI (Gibco, 21,875,034) for SUIT 2.28 and PANC‐1, both supplemented with 10% NBCS and 1% P/S. Additional employed models were the PDAC3 cells, a primary cell culture, the PSCs, which were immortalized healthy pancreatic cells, and the PATU‐T‐GR, which was a gemcitabine resistant model of PATU‐T. PDAC3 and PSCs were cultivated using complete RPMI medium, while PATU‐T‐GR required complete DMEM medium. For seeding, cells were detached with Trypsin‐EDTA (0.05%) (GibcoTM, 25,300–096) and were consequently counted using the Automated Cell Counter (Luna‐II, Westburg). Cells were then plated on 96‐ or 6‐well plates depending on the planned experiment.
The Sulforhodamine B (SRB) chemosensitivity assay was used to measure cytotoxicity and cell proliferation post drug treatment. At day 0, 3–6 × 10^3 cells were seeded in a 96‐well plate, depending on the cell line. At day 1, cells were attached and ready to be treated. For the calculation of the IC50, drug dilutions for the compounds 1b, 1c, 1d, 1e, 1g, 1hr, 1i, 1j, and LDC4297 (MedChemExpress, HY‐12,653) were prepared in dilution trays and eight different concentrations were included. These were added in triplicates to the cells, which were then incubated for […] at 37 °C in 5% CO2. During day 1, the control plate was fixed with 50% Trichloroacetic acid (TCA), as intended to be the baseline plate used for the normalization of the data. 72 h post‐treatment, the cells were fixed with TCA, and placed at 4 °C for about 2 h. The plates were then washed with distillated water and left to dry under the hood with ventilation. Subsequently, plates were stained with 0.4% SRB for 15 min and washed with 1% acetic acid to remove excess stain. Once dried again, the protein‐bound SRB was dissolved in 10 mM TRIS, and the plates were placed on a shaker for 10 min per plate. Lastly, the absorbance was measured at 492 nm with a spectrophotometer (Synergy HT, BioTek). The absorbance data obtained were normalized to the day 1 control, and the percentage of cell growth in relation to the control was calculated using the following formula. (1) %Cell growth=Mean OD treatment−Mean OD day0/Mean OD control−Mean OD day0×100
The percentage of proliferation and their respective standard deviations were used to perform statistical analysis in GraphPad Prism software v 10 (GraphPad Software, San Diego, CA). Data were normalized to the day 0 control and to their own untreated 72 h control. These were transformed into logarithmic data, and log(inhibitor) versus response analysis was performed for obtaining the IC50 values per cell lines. Each experiment was conducted in triplicates.

Bax/Bcl‐2 = Bax/Bcl‐2 ratio by RT‐PCR, PANC‐1 cells
Description: In order to understand modulation of downstream genes of CDK7, gene expression analysis by qPCR was performed in all cell lines. Cells (5 × 10^5/well) were seeded in 6‐well plates and treated with the compounds 1b and 1g at 1× and 4 × IC50 concentrations. Cell lysates were collected 24 h post‐treatment using 300 µL of TRIzol Reagent (Ambion, 15,596,018) per well. Total RNA was extracted by mixing 60 µL of chloroform to the samples, incubating for 3 min and centrifuging at 12,000 rcf for 15 min at 4 °C. The upper aqueous phase containing RNA was transferred to a new Eppendorf and mixed with 120 µL of cold isopropanol in order to allow the RNA to precipitate. Samples were incubated at RT for 10 min and were then centrifuged at 12,000 rcf for 10 min at 4 °C. The isopropanol was carefully removed, and the pellet was washed twice with 70% ETOH. Pellets were left to air dry and consequently resuspended in RNAse‐free water. Samples were left agitation on a thermomixer at 55 °C for 10 min at 600 rpm and were then quantified through NanoDrop technology (Thermo Scientific, NanoDrop One/One^c). RNA samples were stored at −80 °C.
In order to perform cDNA synthesis, the First Strand cDNA synthesis kit (Thermo Scientific, K1612) was used. The previously isolated RNA was mixed with 1 µL of oligo dT18 primer into a pcr tube. Nuclease free water was added to reach a final volume of 11 µL. Samples were centrifuged at 1200 rcf for 5 min and were then placed on a thermomixer at 65 °C for a few minutes. A master mix was prepared, including 4 µL of 5× reaction buffer, 1 µL of ribolock RNAse inhibitor, 2 µL of dntp mix (10 mM), and 2 µL of M‐mulv reverse transcriptase for each sample. In total 9 µL of master mix were added to each vial. Samples were centrifuged again and were finally synthesized, following a cycle of 60 min at 37 °C and 5 min at 70 °C. cDNA was now finally synthesized and could be stored at −20 °C. RT‐PCRs reactions were performed using SYBR Green (Bio‐Rad, 1,725,271) (5 µL per sample), primer mix (0.3 µM) (2 µL per sample), and cDNA (10 ng µL^− ^1) (3 µL per sample). […] RT‐PCR assays were carried out in a GeneAmp 5700 Sequence Detection System programmed to hold at 50 °C for 30 min, to hold at 95 °C for 10 min, and to complete 45 cycles of 95 °C for […] and 50 °C for 1 min. The genes that were investigated are shown in Table 5 , with their respective forward and reverse primer sequences.

PDAC3 [2] = experiment: Annexin V apoptosis assay, PDAC3; settings: 1 × IC50
Description: In order to investigate the apoptotic properties of the compounds 1b and 1g, the Annexin V apoptosis assay was performed. Annexins are calcium‐dependent phospholipid binding proteins, which are able to bind to phosphatidylserine (PS). The externalization of PS residues on the outer membrane of apoptotic cells can be detected by Annexin V.
For this assay, cells were seeded in a 96‐well plate at a concentration of 13.5 × 10^3 and 4.5 × 10^3 /well respectively for the 24 and 72 h experiments. The next day cells were treated with compounds 1b and 1g at 1 × IC50 and 4 × IC50 concentrations. The apoptosis assay was performed 24 and 72 h post‐treatment following the BD Pharmingen FITC Annexin V Apoptosis Detection Kit I (BD Biosciences, 556,547). The supernatant was aspirated, and cells were washed with phosphate‐buffered saline (PBS). Cells were consequently treated with binding buffer BBA + Annexin V (1:100) and were incubated in the dark at RT for 10 min. The supernatant was removed, and the cells were washed with BBA (1:10). Cells were then incubated with BBA + PI (1:100) and were immediately read with the spectrophotometer at ex. 485/ em. 535. Two different programs were used to read the Annexin V and the PI absorbance. Lastly, 100 µL of PBS were added to each well before being fixed with TCA. This was followed by the SRB assay to standardize fluorescence data according to cell count. Data were exported into GraphPad Prism 10 for statistical analysis.

SMILES | IC50 (PDAC3 [1]; PDAC-3, read-out: IC50 PDAC3, SRB, primary cell line, average ± SEM, triplicate) | IC50 (PDAC3 [1]; read-out: IC50 PDAC3, SRB, primary cell line, average ± SEM, triplicate) | Bax/Bcl‐2 ratio PANC‐1 (Bax/Bcl‐2; 1 × IC50, 24 h after treatment) | Bax/Bcl‐2 ratio PANC‐1 (Bax/Bcl‐2; 4 × IC50, 24 h after treatment) | apoptotic index (PDAC3 [2]; PDAC3, 24 h) | apoptotic index (PDAC3 [2]; PDAC3, 72 h) | IC50 (PDAC3 [1]; PDAC-3, SRB, primary cell line, average ± SEM, triplicate, read-out: IC50 PDAC3) | IC50 (PDAC3 [1]; SRB, primary cell line, average ± SEM, triplicate, read-out: IC50 PDAC3)
Cn1cc(-c2cc3ncnc(N)n3n2)c2cc(Br)ccc21 [Compound 1g, 7‐(5‐Bromo‐1‐methyl‐1H‐indol‐3‐yl)pyrazolo[1,5‐a][1,3,5]triazin‐4‐amine] | 684 nM | 700 ± 100 nM | 6.41 | 1.83 | significant increase in apoptotic index | continued to show a significant rise |  | 
Nc1ncnc2cc(-c3c[nH]c4ccc(Br)cc34)nn12 [Compound 1b, 7‐(5‐Bromo‐1H‐indol‐3‐yl)pyrazolo[1,5‐a][1,3,5]triazin‐4‐amine] |  |  | 4.12 | 2.44 | significant increase in apoptotic index | continued to show a significant rise | 1270 nM | 1300 ± 200 nM
